Experimental data taken from patent US20060263802A1 (priority 2003, published 2006).

These sequences were tested on human monoclonal antibody CR57.
Type: binding

Sequence | binding of CR57 to 12-, 10- and 8-mer peptides
KLKLCGVL | bound
KLKLCGVLGL | bound
LKLCGVLG | bound
LKLCGVLGLR | bound
